# Reference: PubChem BioAssay (NCI)
#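 1) Cells in 96-well plates. 2) Compound, 48 h, 5 concentrations. 3) Linear interpolation between surrounding doses. 4) Unreached endpoint = highest concentration. TGI marks complete inhibition of growth.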
# Experiments:
# Test in all cases: NCI tumour cell line growth inhibition, 48 h
# MCF7 breast = system: MCF7 breast
# TK-10 renal = system: TK-10 renal
# SR leukemia = system: SR leukemia
# SF-295 CNS = system: SF-295 CNS
# 786-0 renal = system: 786-0 renal
# MDA-MB-435 = system: MDA-MB-435
# HCT-116 colon = system: HCT-116 colon
# NCI-H226 lung = system: NCI-H226 lung
# BT-549 breast = system: BT-549 breast
# HCC-2998 colon = system: HCC-2998 colon
# K-562 leukemia = system: K-562 leukemia
# NCI-H460 lung = system: NCI-H460 lung
# SK-MEL-2 melanoma = system: SK-MEL-2 melanoma
# SW-620 colon = system: SW-620 colon
# HOP-92 NSCLC = system: HOP-92 NSCLC
# SF-268 CNS = system: SF-268 CNS
# M14 melanoma = system: M14 melanoma
# MDA-N = system: MDA-N
# NCI-H23 lung = system: NCI-H23 lung
# RPMI-8226 leukemia = system: RPMI-8226 leukemia
# UACC-257 melanoma = system: UACC-257 melanoma
# SF-539 CNS = system: SF-539 CNS
# SN12C renal = system: SN12C renal
# SK-OV-3 ovarian = system: SK-OV-3 ovarian
# SK-MEL-28 melanoma = system: SK-MEL-28 melanoma
# MOLT-4 leukemia = system: MOLT-4 leukemia
# T-47D breast = system: T-47D breast
# RXF 393 renal = system: RXF 393 renal
# SK-MEL-5 melanoma = system: SK-MEL-5 melanoma
# MALME-3M melanoma = system: MALME-3M melanoma
# SNB-19 CNS = system: SNB-19 CNS
# NCI/ADR-RES ovarian = system: NCI/ADR-RES ovarian
# PC-3 prostate = system: PC-3 prostate
# HCT-15 colon = system: HCT-15 colon
# HL-60(TB) leukemia = system: HL-60(TB) leukemia
# OVCAR-4 ovarian = system: OVCAR-4 ovarian
# DU-145 prostate = system: DU-145 prostate
# SNB-75 CNS = system: SNB-75 CNS
# KM12 colon = system: KM12 colon
# A498 renal = system: A498 renal
# A549 NSCLC = system: A549 NSCLC
# OVCAR-5 ovarian = system: OVCAR-5 ovarian
# UACC-62 melanoma = system: UACC-62 melanoma
# HOP-62 NSCLC = system: HOP-62 NSCLC
# U251 CNS = system: U251 CNS
# COLO 205 colon = system: COLO 205 colon
# HS 578T breast = system: HS 578T breast
# LOX IMVI melanoma = system: LOX IMVI melanoma
# IGROV1 ovarian = system: IGROV1 ovarian
# OVCAR-8 ovarian = system: OVCAR-8 ovarian
# CAKI-1 renal = system: CAKI-1 renal
# OVCAR-3 ovarian = system: OVCAR-3 ovarian
# UO-31 renal = system: UO-31 renal
# MDA-MB-231 breast = system: MDA-MB-231 breast
# EKVX NSCLC = system: EKVX NSCLC
# NCI-H522 lung = system: NCI-H522 lung
# ACHN renal = system: ACHN renal
# HT29 colon = system: HT29 colon
# CCRF-CEM leukemia = system: CCRF-CEM leukemia
smiles,measurement,setting,value
CC(C)c1ccc(O)c(O)c(=O)c1 (tested in a mixture with another compound),TGI,MCF7 breast,> 100 µM
same,TGI,TK-10 renal,9.6 µM
same,TGI,SR leukemia,4.02 µM
same,TGI,SF-295 CNS,> 100 µM
same,TGI,786-0 renal,> 100 µM
same,TGI,MDA-MB-435,> 100 µM
same,TGI,HCT-116 colon,> 42.9 µM
same,TGI,NCI-H226 lung,> 23.4 µM
same,TGI,BT-549 breast,98.9 µM
same,TGI,HCC-2998 colon,4.04 µM
same,TGI,K-562 leukemia,> 100 µM
same,TGI,NCI-H460 lung,0.899 µM
same,TGI,SK-MEL-2 melanoma,3.02 µM
same,TGI,SW-620 colon,> 100 µM
same,TGI,HOP-92 NSCLC,> 83 µM
same,TGI,SF-268 CNS,> 61.5 µM
same,TGI,M14 melanoma,15.5 µM
same,TGI,MDA-N,> 100 µM
same,TGI,NCI-H23 lung,> 26.3 µM
same,TGI,RPMI-8226 leukemia,9.79 µM
same,TGI,UACC-257 melanoma,2.03 µM
same,TGI,SF-539 CNS,> 21.1 µM
same,TGI,SN12C renal,> 100 µM
same,TGI,SK-OV-3 ovarian,> 100 µM
same,TGI,SK-MEL-28 melanoma,23.8 µM
same,TGI,MOLT-4 leukemia,5.53 µM
same,TGI,T-47D breast,> 68.6 µM
same,TGI,RXF 393 renal,12 µM
same,TGI,SK-MEL-5 melanoma,8.13 µM
same,TGI,MALME-3M melanoma,5.44 µM
same,TGI,SNB-19 CNS,> 100 µM
same,TGI,NCI/ADR-RES ovarian,> 36.9 µM
same,TGI,PC-3 prostate,15.6 µM
same,TGI,HCT-15 colon,> 100 µM
same,TGI,HL-60(TB) leukemia,2.39 µM
same,TGI,OVCAR-4 ovarian,> 100 µM
same,TGI,DU-145 prostate,33.7 µM
same,TGI,SNB-75 CNS,22.8 µM
same,TGI,KM12 colon,> 82.1 µM
same,TGI,A498 renal,25.2 µM
same,TGI,A549 NSCLC,> 100 µM
same,TGI,OVCAR-5 ovarian,> 100 µM
same,TGI,UACC-62 melanoma,12.1 µM
same,TGI,HOP-62 NSCLC,> 100 µM
same,TGI,U251 CNS,4.98 µM
same,TGI,COLO 205 colon,17.1 µM
same,TGI,HS 578T breast,69.7 µM
same,TGI,LOX IMVI melanoma,27.2 µM
same,TGI,IGROV1 ovarian,> 54.9 µM
same,TGI,OVCAR-8 ovarian,> 100 µM
same,TGI,CAKI-1 renal,> 52.2 µM
same,TGI,OVCAR-3 ovarian,> 100 µM
same,TGI,UO-31 renal,> 41.2 µM
same,TGI,MDA-MB-231 breast,26.7 µM
same,TGI,EKVX NSCLC,47.7 µM
same,TGI,NCI-H522 lung,17.5 µM
same,TGI,ACHN renal,13 µM
same,TGI,HT29 colon,> 100 µM
CC1(C)OCC(C2OC(=O)C(OCc3ccccc3)=C2OCc2ccccc2)O1 (stereo unspecified),TGI,MCF7 breast,> 100 µM
same,TGI,TK-10 renal,> 100 µM
same,TGI,SR leukemia,> 100 µM
same,TGI,SF-295 CNS,> 100 µM
same,TGI,786-0 renal,> 100 µM
same,TGI,MDA-MB-435,79.4 µM
same,TGI,HCT-116 colon,> 100 µM
same,TGI,NCI-H226 lung,> 100 µM
same,TGI,BT-549 breast,93.2 µM
same,TGI,HCC-2998 colon,> 100 µM
same,TGI,K-562 leukemia,> 100 µM
same,TGI,NCI-H460 lung,> 100 µM
same,TGI,SK-MEL-2 melanoma,61 µM
same,TGI,SW-620 colon,> 100 µM
same,TGI,HOP-92 NSCLC,> 100 µM
same,TGI,SF-268 CNS,> 100 µM
same,TGI,M14 melanoma,> 100 µM
same,TGI,CCRF-CEM leukemia,> 100 µM
same,TGI,MDA-N,> 100 µM
same,TGI,NCI-H23 lung,92.5 µM
same,TGI,RPMI-8226 leukemia,76.5 µM
same,TGI,UACC-257 melanoma,96.8 µM
same,TGI,SF-539 CNS,> 100 µM
same,TGI,SN12C renal,> 100 µM
same,TGI,SK-OV-3 ovarian,> 100 µM
same,TGI,SK-MEL-28 melanoma,> 100 µM
same,TGI,MOLT-4 leukemia,73.1 µM
same,TGI,T-47D breast,> 100 µM
same,TGI,RXF 393 renal,> 100 µM
same,TGI,SK-MEL-5 melanoma,32.3 µM
same,TGI,MALME-3M melanoma,93.9 µM
same,TGI,SNB-19 CNS,> 100 µM
same,TGI,NCI/ADR-RES ovarian,> 100 µM
same,TGI,PC-3 prostate,78.1 µM
same,TGI,HCT-15 colon,> 100 µM
same,TGI,HL-60(TB) leukemia,52 µM
same,TGI,OVCAR-4 ovarian,> 100 µM
same,TGI,DU-145 prostate,> 100 µM
same,TGI,SNB-75 CNS,> 100 µM
same,TGI,KM12 colon,> 100 µM
same,TGI,A498 renal,90.5 µM
same,TGI,A549 NSCLC,> 100 µM
same,TGI,OVCAR-5 ovarian,> 100 µM
same,TGI,UACC-62 melanoma,> 100 µM
same,TGI,HOP-62 NSCLC,> 100 µM
same,TGI,U251 CNS,> 100 µM
same,TGI,COLO 205 colon,50.6 µM
same,TGI,HS 578T breast,> 100 µM
same,TGI,LOX IMVI melanoma,> 100 µM
same,TGI,IGROV1 ovarian,> 100 µM
same,TGI,OVCAR-8 ovarian,> 100 µM
same,TGI,CAKI-1 renal,> 100 µM
same,TGI,OVCAR-3 ovarian,> 100 µM
same,TGI,UO-31 renal,> 100 µM
same,TGI,MDA-MB-231 breast,> 100 µM
same,TGI,EKVX NSCLC,> 100 µM
same,TGI,NCI-H522 lung,78.4 µM
same,TGI,ACHN renal,> 100 µM
same,TGI,HT29 colon,> 100 µM
Cc1cccc2cc3ccc4ccccc4c3cc12,TGI,MCF7 breast,98 µM
same,TGI,TK-10 renal,> 100 µM
same,TGI,SR leukemia,47.4 µM
same,TGI,SF-295 CNS,> 100 µM
same,TGI,786-0 renal,> 100 µM
same,TGI,MDA-MB-435,> 100 µM
same,TGI,HCT-116 colon,> 100 µM
same,TGI,NCI-H226 lung,> 100 µM
same,TGI,BT-549 breast,> 100 µM
same,TGI,HCC-2998 colon,46.7 µM
same,TGI,K-562 leukemia,> 100 µM
same,TGI,NCI-H460 lung,83.2 µM
same,TGI,SK-MEL-2 melanoma,66.5 µM
same,TGI,SW-620 colon,> 100 µM
same,TGI,HOP-92 NSCLC,> 100 µM
same,TGI,SF-268 CNS,> 100 µM
same,TGI,M14 melanoma,> 100 µM
same,TGI,CCRF-CEM leukemia,39.3 µM
same,TGI,MDA-N,> 100 µM
same,TGI,NCI-H23 lung,> 100 µM
same,TGI,RPMI-8226 leukemia,> 100 µM
same,TGI,UACC-257 melanoma,53 µM
same,TGI,SF-539 CNS,> 100 µM
same,TGI,SN12C renal,> 100 µM
same,TGI,SK-OV-3 ovarian,> 100 µM
same,TGI,SK-MEL-28 melanoma,> 100 µM
same,TGI,MOLT-4 leukemia,70.9 µM
same,TGI,T-47D breast,> 100 µM
same,TGI,RXF 393 renal,> 100 µM
same,TGI,SK-MEL-5 melanoma,52.6 µM
same,TGI,MALME-3M melanoma,> 100 µM
same,TGI,SNB-19 CNS,> 100 µM
same,TGI,NCI/ADR-RES ovarian,> 100 µM
same,TGI,PC-3 prostate,> 100 µM
same,TGI,HCT-15 colon,> 100 µM
same,TGI,HL-60(TB) leukemia,52 µM
same,TGI,OVCAR-4 ovarian,> 100 µM
same,TGI,DU-145 prostate,> 100 µM
same,TGI,SNB-75 CNS,> 100 µM
same,TGI,KM12 colon,> 100 µM
same,TGI,A498 renal,> 100 µM
same,TGI,A549 NSCLC,> 100 µM
same,TGI,OVCAR-5 ovarian,> 100 µM
same,TGI,UACC-62 melanoma,> 100 µM
same,TGI,HOP-62 NSCLC,> 100 µM
same,TGI,U251 CNS,> 100 µM
same,TGI,COLO 205 colon,39 µM
same,TGI,HS 578T breast,> 100 µM
same,TGI,LOX IMVI melanoma,> 100 µM
same,TGI,IGROV1 ovarian,> 100 µM
same,TGI,OVCAR-8 ovarian,> 100 µM
same,TGI,CAKI-1 renal,> 100 µM
same,TGI,OVCAR-3 ovarian,> 100 µM
same,TGI,UO-31 renal,> 100 µM
same,TGI,MDA-MB-231 breast,> 100 µM
same,TGI,EKVX NSCLC,78.3 µM
same,TGI,NCI-H522 lung,95.5 µM
same,TGI,ACHN renal,> 100 µM
same,TGI,HT29 colon,97.8 µM
